Measured values from ChEMBL document CHEMBL1201862, “PubChem BioAssay data set” (2004).
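Assay format: 96-well plates, 48-hour exposure. GI50 is the concentration that inhibits growth by half.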 The source made the active and inactive calls. No stated cut-off is given here; in the data, active = GI50 up to about 1.1 µM and inactive = higher.

Assays:
Assay in all cases: NCI anticancer screen, dose series, 48 h
SK-MEL-5 = system: SK-MEL-5
SW-620 = system: SW-620
COLO 205 = system: COLO 205
RXF 393 = system: RXF 393
K562 = system: K562
U-251 = system: U-251
OVCAR-4 = system: OVCAR-4
HCT-15 = system: HCT-15
CAKI-1 = system: CAKI-1
IGROV-1 = system: IGROV-1
SR = system: SR
M14 = system: M14
HOP-92 = system: HOP-92
SF-539 = system: SF-539
NCI-H226 = system: NCI-H226
SK-MEL-2 = system: SK-MEL-2

Compound	GI50 (SK-MEL-5)	GI50 (SW-620)	GI50 (COLO 205)	GI50 (RXF 393)	GI50 (K562)	GI50 (U-251)	GI50 (OVCAR-4)	GI50 (HCT-15)	GI50 (CAKI-1)	GI50 (IGROV-1)	GI50 (SR)	GI50 (M14)	GI50 (HOP-92)	GI50 (SF-539)	GI50 (NCI-H226)	GI50 (SK-MEL-2)
N=C(N)N/N=C(/c1nc2ccc([N+](=O)[O-])cc2[nH]c1=O)C(O)c1ccc([N+](=O)[O-])cc1 (configuration not stated)	37.5 µM (inactive)	> 100 µM (inactive)	79.8 µM (inactive)	> 100 µM (inactive)	> 100 µM (inactive)	67.3 µM (inactive)	> 100 µM (inactive)	11.5 µM	28.4 µM (inactive)	> 100 µM (inactive)	> 100 µM (inactive)	79.3 µM (inactive)	> 100 µM (inactive)	31.3 µM (inactive)	> 100 µM (inactive)	
CC(=O)OC1[C@H]2c3cc4c(cc3CN3CCC(C[C@@H]1OC(C)=O)C23)OCO4 (some centres not stated)		> 75 µM (inactive)	> 75 µM (inactive)	> 75 µM (inactive)	> 75 µM (inactive)	> 75 µM (inactive)		> 75 µM		> 75 µM (inactive)	> 75 µM (inactive)	> 75 µM (inactive)		> 75 µM (inactive)	8.13 µM (inactive)	
CC1(C)OC(=O)C(C#N)=C1/C=C/c1coc2ccc(Cl)cc2c1=O	21.9 µM (inactive)	39.2 µM (inactive)	57.7 µM (inactive)		27.5 µM (inactive)	34.4 µM (inactive)	24.6 µM (inactive)	27.4 µM	10.8 µM (inactive)	58.3 µM (inactive)	31.5 µM (inactive)	35.6 µM (inactive)		> 10 µM (inactive)	29.4 µM (inactive)	22.1 µM (inactive)
COC(=O)NN=C1C(C)(C)C(=O)C1(C)C	> 100 µM (inactive)	> 100 µM (inactive)	> 100 µM (inactive)	> 100 µM (inactive)	> 100 µM (inactive)	> 100 µM (inactive)				> 100 µM (inactive)		> 100 µM (inactive)	> 100 µM (inactive)	> 100 µM (inactive)	> 100 µM (inactive)	> 100 µM (inactive)
O=[N+]([O-])c1ccc(-c2ccc(-c3csc(Nc4ccccc4)n3)o2)cc1	19.5 µM (inactive)	15.6 µM (inactive)	20.9 µM (inactive)		7.59 µM (inactive)	19.6 µM (inactive)	17.3 µM (inactive)	19.7 µM	20.6 µM (inactive)	25.1 µM (inactive)	1.9 µM (inactive)	20.6 µM (inactive)	19.5 µM (inactive)	18.8 µM (inactive)	40.6 µM (inactive)	19.2 µM (inactive)
CSC(C1c2ccccc2N(C)c2[nH]c(=O)n(C)c(=O)c21)S(=O)(=O)c1ccc(C)cc1 (configuration not stated)	> 100 µM (inactive)	> 100 µM (inactive)	> 100 µM (inactive)		43.6 µM (inactive)	> 100 µM (inactive)	> 100 µM (inactive)	64.3 µM	> 100 µM (inactive)	> 100 µM (inactive)			> 100 µM (inactive)	42.7 µM (inactive)	> 100 µM (inactive)	> 100 µM (inactive)
COc1cccc(NC(=O)CC(=O)N2NC(c3ccccc3)C(/N=N/c3cccc(C(=O)O)c3)C2=O)c1 (configuration not stated)	> 100 µM (inactive)	> 100 µM (inactive)	> 10 µM (inactive)	49.5 µM (inactive)		> 100 µM (inactive)	> 100 µM (inactive)		89.5 µM (inactive)	> 100 µM (inactive)	55.2 µM (inactive)	> 100 µM (inactive)	> 100 µM (inactive)	> 100 µM (inactive)	> 100 µM (inactive)	
COC(=O)/C=C1\CCC2[C@@H](C(=O)CC3[C@]2(C)CCC[C@@]3(C)C(=O)OC)C1C (some centres not stated)	13.5 µM (inactive)	26.6 µM (inactive)	17.3 µM (inactive)		15 µM (inactive)	33.3 µM (inactive)	22.5 µM (inactive)	29.8 µM	30.1 µM (inactive)	24.6 µM (inactive)		17.9 µM (inactive)	21 µM (inactive)	25.2 µM (inactive)	20 µM (inactive)	18.2 µM (inactive)
[O-]c1c2c(nn1-c1ccc(Cl)cc1)c1ccccc1c[n+]2Cc1ccccc1	58.7 µM (inactive)	> 100 µM (inactive)	> 100 µM (inactive)	27 µM (inactive)	> 100 µM (inactive)	> 100 µM (inactive)	46.2 µM (inactive)		> 100 µM (inactive)	62.4 µM (inactive)	> 100 µM (inactive)	> 100 µM (inactive)		80.4 µM (inactive)	> 100 µM (inactive)	> 100 µM (inactive)
Fc1cccc(F)c1C1SCc2nc3ccccc3n21 (configuration not stated) [THIAZOLOBENZIMIDAZOLE]	31.5 µM (inactive)	> 100 µM (inactive)	> 100 µM (inactive)	> 100 µM (inactive)	36.5 µM (inactive)	> 100 µM (inactive)	> 100 µM (inactive)	54.5 µM	> 100 µM (inactive)	80.9 µM (inactive)		> 100 µM (inactive)	28.5 µM (inactive)	> 100 µM (inactive)	97.5 µM (inactive)	> 100 µM (inactive)
O=C(/C=N/c1ccccc1C(=O)[O-])c1cccs1.O=C(/C=N/c1ccccc1C(=O)[O-])c1cccs1.[Zn+2]		67.5 µM (inactive)	> 100 µM (inactive)		29.2 µM (inactive)	17.5 µM (inactive)		> 100 µM	91 µM (inactive)	31.9 µM (inactive)	46.3 µM (inactive)	36.4 µM (inactive)	19.6 µM (inactive)	42.5 µM (inactive)		25.8 µM (inactive)
O=C(CSc1nnc(Cc2ccccc2)o1)Nc1ccc([N+](=O)[O-])cc1	> 100 µM (inactive)		> 100 µM (inactive)	> 100 µM (inactive)	40.2 µM (inactive)	> 100 µM (inactive)	> 100 µM (inactive)	> 100 µM		> 100 µM (inactive)		> 100 µM (inactive)		> 100 µM (inactive)	> 100 µM (inactive)	> 100 µM (inactive)
COc1cc([C@@H]2c3cc4c(cc3[C@@H](NC(=O)c3ccc(C#N)cc3)C3COC(=O)[C@@H]32)OCO4)cc(OC)c1O (some centres not stated)	0.743 µM (active)	0.331 µM (active)	2.94 µM (inactive)	1.97 µM (inactive)	1.63 µM (inactive)	0.106 µM (active)	8.93 µM (inactive)	2.28 µM	1.14 µM (inactive)	0.191 µM (active)		0.721 µM (active)	0.586 µM (active)	0.249 µM (active)	0.0176 µM (active)	2.29 µM (inactive)
c1ccc(N2CCN(CCN3CCc4c([nH]c5ccccc45)C3c3cccnc3)CC2)cc1 (configuration not stated)	> 100 µM (inactive)	> 100 µM (inactive)			7.14 µM (inactive)	> 100 µM (inactive)	> 100 µM (inactive)	> 100 µM	> 100 µM (inactive)	> 100 µM (inactive)	> 100 µM (inactive)	> 100 µM (inactive)	14.4 µM (inactive)	20.5 µM (inactive)		
